ChEMBL document CHEMBL1201862, “PubChem BioAssay data set” (2004)
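Test compounds were applied to cells in 96-well plates for 48 hours at 5 doses. The concentration for 50% growth inhibition is given as GI50.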 Active and inactive are the calls of the source. Cut-off read from the data, not from the text of the source: active = GI50 up to about 1.1 µM and inactive = higher.

Legend:
Assay in all cases: NCI tumour cell line growth inhibition, 48 h
HOP-18 = test system: HOP-18
CAKI-1 = test system: CAKI-1
SK-MEL-2 = test system: SK-MEL-2
Malme-3M = test system: Malme-3M
786-0 = test system: 786-0
SF-268 = test system: SF-268
HT-29 = test system: HT-29
RXF 631 = test system: RXF 631
KM12 = test system: KM12
U-251 = test system: U-251
OVCAR-3 = test system: OVCAR-3
HOP-92 = test system: HOP-92
NCI-H23 = test system: NCI-H23
SF-295 = test system: SF-295
HCT-15 = test system: HCT-15
SK-MEL-5 = test system: SK-MEL-5
OVCAR-4 = test system: OVCAR-4
UACC-257 = test system: UACC-257
SNB-19 = test system: SNB-19
A549 = test system: A549
NCI-H522 = test system: NCI-H522
A498 = test system: A498
SW-620 = test system: SW-620
SNB-75 = test system: SNB-75
EKVX = test system: EKVX
DMS-114 = test system: DMS-114
RPMI-8226 = test system: RPMI-8226
NCI-H460 = test system: NCI-H460
M14 = test system: M14
UACC-62 = test system: UACC-62
XF498 = test system: XF498
MOLT-4 = test system: MOLT-4
HCT-116 = test system: HCT-116
NCI-H226 = test system: NCI-H226
SNB-78 = test system: SNB-78
HL-60 = test system: HL-60
HOP-62 = test system: HOP-62
OVCAR-5 = test system: OVCAR-5
ACHN = test system: ACHN
HCC 2998 = test system: HCC 2998
LOX IMVI = test system: LOX IMVI
CCRF-CEM = test system: CCRF-CEM
COLO 205 = test system: COLO 205
KM-20L2 = test system: KM-20L2
SN12C = test system: SN12C
UO-31 = test system: UO-31
SK-OV-3 = test system: SK-OV-3
M19-MEL = test system: M19-MEL
K562 = test system: K562
TK-10 = test system: TK-10
DMS-273 = test system: DMS-273
IGROV-1 = test system: IGROV-1
RXF 393 = test system: RXF 393
SF-539 = test system: SF-539
SK-MEL-28 = test system: SK-MEL-28
LXFL 529 = test system: LXFL 529
OVCAR-8 = test system: OVCAR-8
DLD-1 = test system: DLD-1
SR = test system: SR

Q: `COc1cc2c(cc1OC)[C@@H]([C@H](O)c1ccccc1)NCC2` was tested. Which GI50 (HOP-18) did it give?
A: > 100 µM (inactive)

Q: What about the GI50 (CAKI-1) of the same compound?
A: > 84.9 µM (inactive)

Q: And the GI50 (SK-MEL-2)?
A: > 100 µM (inactive)

Q: And the GI50 (Malme-3M)?
A: > 100 µM (inactive)

Q: What about the GI50 (786-0) of the same compound?
A: > 100 µM (inactive)

Q: What about the GI50 (SF-268) of the same compound?
A: > 100 µM (inactive)

Q: And the GI50 (HT-29)?
A: > 100 µM (inactive)

Q: What about the GI50 (RXF 631) of the same compound?
A: > 97.3 µM (inactive)

Q: And the GI50 (KM12)?
A: > 100 µM (inactive)

Q: What about the GI50 (U-251) of the same compound?
A: > 100 µM (inactive)

Q: What about the GI50 (OVCAR-3) of the same compound?
A: > 100 µM (inactive)

Q: And the GI50 (HOP-92)?
A: > 74.1 µM (inactive)

Q: And the GI50 (NCI-H23)?
A: > 100 µM (inactive)

Q: And the GI50 (SF-295)?
A: > 100 µM (inactive)

Q: What about the GI50 (HCT-15) of the same compound?
A: > 100 µM

Q: And the GI50 (SK-MEL-5)?
A: > 100 µM (inactive)

Q: And the GI50 (OVCAR-4)?
A: > 100 µM (inactive)

Q: And the GI50 (UACC-257)?
A: > 100 µM (inactive)

Q: What about the GI50 (SNB-19) of the same compound?
A: > 100 µM (inactive)

Q: And the GI50 (A549)?
A: > 100 µM (inactive)

Q: And the GI50 (NCI-H522)?
A: > 100 µM (inactive)

Q: And the GI50 (A498)?
A: > 100 µM (inactive)

Q: What about the GI50 (SW-620) of the same compound?
A: > 100 µM (inactive)

Q: And the GI50 (SNB-75)?
A: 55 µM (inactive)

Q: What about the GI50 (EKVX) of the same compound?
A: > 97.7 µM (inactive)

Q: What about the GI50 (DMS-114) of the same compound?
A: > 100 µM (inactive)

Q: What about the GI50 (RPMI-8226) of the same compound?
A: > 100 µM (inactive)

Q: What about the GI50 (NCI-H460) of the same compound?
A: > 100 µM (inactive)

Q: What about the GI50 (M14) of the same compound?
A: > 100 µM (inactive)

Q: What about the GI50 (UACC-62) of the same compound?
A: > 100 µM (inactive)

Q: And the GI50 (XF498)?
A: > 100 µM (inactive)

Q: What about the GI50 (MOLT-4) of the same compound?
A: > 100 µM (inactive)

Q: And the GI50 (HCT-116)?
A: > 100 µM (inactive)

Q: And the GI50 (NCI-H226)?
A: > 100 µM (inactive)

Q: And the GI50 (SNB-78)?
A: > 100 µM (inactive)

Q: And the GI50 (HL-60)?
A: > 100 µM (inactive)

Q: What about the GI50 (HOP-62) of the same compound?
A: > 100 µM (inactive)

Q: What about the GI50 (OVCAR-5) of the same compound?
A: > 100 µM (inactive)

Q: What about the GI50 (ACHN) of the same compound?
A: > 100 µM (inactive)

Q: And the GI50 (HCC 2998)?
A: > 100 µM (inactive)

Q: And the GI50 (LOX IMVI)?
A: > 100 µM (inactive)

Q: And the GI50 (CCRF-CEM)?
A: > 100 µM (inactive)

Q: What about the GI50 (COLO 205) of the same compound?
A: > 100 µM (inactive)

Q: And the GI50 (KM-20L2)?
A: > 100 µM (inactive)

Q: What about the GI50 (SN12C) of the same compound?
A: > 100 µM (inactive)

Q: What about the GI50 (UO-31) of the same compound?
A: > 92.7 µM (inactive)

Q: And the GI50 (SK-OV-3)?
A: > 82.6 µM (inactive)

Q: And the GI50 (M19-MEL)?
A: > 100 µM (inactive)

Q: And the GI50 (K562)?
A: > 100 µM (inactive)

Q: What about the GI50 (TK-10) of the same compound?
A: > 100 µM (inactive)

Q: And the GI50 (DMS-273)?
A: > 100 µM (inactive)

Q: What about the GI50 (IGROV-1) of the same compound?
A: > 100 µM (inactive)

Q: What about the GI50 (RXF 393) of the same compound?
A: > 100 µM (inactive)

Q: What about the GI50 (SF-539) of the same compound?
A: > 100 µM (inactive)

Q: What about the GI50 (SK-MEL-28) of the same compound?
A: > 100 µM (inactive)

Q: What about the GI50 (LXFL 529) of the same compound?
A: > 100 µM (inactive)

Q: What about the GI50 (OVCAR-8) of the same compound?
A: > 100 µM (inactive)

Q: And the GI50 (DLD-1)?
A: > 100 µM (inactive)

Q: What about the GI50 (SR) of the same compound?
A: > 100 µM (inactive)

Q: What does the source list for `CC(C)=CCc1c(O)cc(O)c2c1OC(c1ccc(O)cc1)C(O)C2=O` (configuration not stated)?
A: GI50 (HOP-18): 17.8 µM (inactive); GI50 (SK-MEL-2): 23.6 µM (inactive); GI50 (Malme-3M): 25.5 µM (inactive); GI50 (SF-268): 32.1 µM (inactive); GI50 (HT-29): 20.9 µM (inactive); GI50 (RXF 631): 31.8 µM (inactive); GI50 (KM12): 26.5 µM (inactive); GI50 (U-251): 25.2 µM (inactive); GI50 (OVCAR-3): 19.2 µM (inactive); GI50 (HOP-92): 18.3 µM (inactive); GI50 (NCI-H23): 18.2 µM (inactive); GI50 (SF-295): 27.5 µM (inactive); GI50 (HCT-15): 21.7 µM; GI50 (SK-MEL-5): 22.3 µM (inactive); GI50 (OVCAR-4): 30.5 µM (inactive); GI50 (UACC-257): 36.2 µM (inactive); GI50 (SNB-19): 37.2 µM (inactive); GI50 (A549): 26.1 µM (inactive); GI50 (NCI-H522): 18.9 µM (inactive); GI50 (A498): 42.2 µM (inactive); GI50 (SW-620): 36.4 µM (inactive); GI50 (SNB-75): 26.8 µM (inactive); GI50 (EKVX): 25.6 µM (inactive); GI50 (DMS-114): 39.4 µM (inactive); GI50 (NCI-H460): 27.6 µM (inactive); GI50 (M14): 22.6 µM (inactive); GI50 (UACC-62): 21.4 µM (inactive); GI50 (XF498): 30.2 µM (inactive); GI50 (MOLT-4): > 10 µM (inactive); GI50 (HCT-116): 32.4 µM (inactive); GI50 (NCI-H226): 21.9 µM (inactive); GI50 (SNB-78): 24.3 µM (inactive); GI50 (HOP-62): 19.3 µM (inactive); GI50 (OVCAR-5): 28.2 µM (inactive); GI50 (ACHN): 25.5 µM (inactive); GI50 (HCC 2998): 23.1 µM (inactive); GI50 (LOX IMVI): 18.7 µM (inactive); GI50 (CCRF-CEM): > 10 µM (inactive); GI50 (COLO 205): 31 µM (inactive); GI50 (KM-20L2): 18.1 µM (inactive); GI50 (SN12C): 27.7 µM (inactive); GI50 (UO-31): 40 µM (inactive); GI50 (SK-OV-3): 38.4 µM (inactive); GI50 (M19-MEL): 35.7 µM (inactive); GI50 (K562): 20.2 µM (inactive); GI50 (TK-10): 24.9 µM (inactive); GI50 (IGROV-1): 32 µM (inactive); GI50 (RXF 393): 20.3 µM (inactive); GI50 (SF-539): 18.4 µM (inactive); GI50 (SK-MEL-28): 23.3 µM (inactive); GI50 (LXFL 529): 28.8 µM (inactive); GI50 (OVCAR-8): 31.8 µM (inactive); GI50 (DLD-1): 30.2 µM (inactive)
